# In ChEMBL document CHEMBL5052852, “Substituted hydantoinamides as adamts7 antagonists” (2021):
# Key:
# [1] = Inhibition of recombinant rat/human ADAMTS12 hybrid using HiLyteFluor-488 DELSSMVLELRGLRT-K(QXL520)-E-NH2 as substrate incubated for 120 mins and measured by FRET assay
# [2] = Inhibition of recombinant rat/human ADAMTS7 hybrid using HiLyteFluor-488 DELSSMVLELRGLRT-K(QXL520)-E-NH2 as substrate incubated for 120 mins and measured by FRET assay
SMILES,IC50 [1] [nM],IC50 [2] [nM]
CCC1(CNC(=O)c2cnn(-c3ccc(F)cc3)n2)NC(=O)NC1=O (racemic),13000,200
CCC(C)C1(CNC(=O)c2cnn(-c3ccc(F)cc3)n2)NC(=O)NC1=O (racemic),2200,10
O=C1NC(=O)C(CNC(=O)c2cnn(-c3ccc(F)cc3)n2)(c2ccccc2)N1 (racemic),> 50000,69
Cc1nc(C2(CNC(=O)c3cnn(-c4ccc(F)cc4)n3)NC(=O)NC2=O)c(C)s1 (racemic),2800,100
CCCCC1(CNC(=O)c2cnn(-c3ccc(F)cc3)n2)NC(=O)NC1=O (racemic),8300,120
CC(C)C1(CNC(=O)c2cnn(-c3cc(F)c(F)c(F)c3)n2)NC(=O)NC1=O (racemic),6000,52
Cn1ccnc1C1(CNC(=O)c2cnn(-c3ccccc3)n2)NC(=O)NC1=O (racemic),360,4
O=C1NC(=O)C(CNC(=O)c2cnn(-c3ccc(F)cc3)n2)(C2CCC2)N1 (racemic),35000,98
CC(C)C1(CNC(=O)c2cnn(-c3cccc(C#N)c3)n2)NC(=O)NC1=O (racemic),6000,170
Cn1ccnc1C1(CNC(=O)c2cnn(-c3ccc(F)cc3)n2)NC(=O)NC1=O (racemic),320,4
O=C1NC(=O)C(CNC(=O)c2cnn(-c3ccc(F)cc3)n2)(C2(Cl)CC2)N1 (racemic),3700,74
O=C1NC(=O)C(CNC(=O)c2cnn(-c3ccc(F)c(Cl)c3)n2)(c2nccs2)N1 (racemic),1200,35
CCn1nccc1C1(CNC(=O)c2cnn(-c3ccc(F)cc3)n2)NC(=O)NC1=O (racemic),2800,14
O=C1NC(=O)C(CNC(=O)c2cnn(-c3ccc(Cl)c(F)c3)n2)(c2nccs2)N1 (racemic),1100,19
Cc1scnc1C1(CNC(=O)c2cnn(-c3ccc(F)cc3)n2)NC(=O)NC1=O (racemic),680,8
O=C1NC(=O)C(CNC(=O)c2cnn(-c3ccc(F)cc3)n2)(c2nccs2)N1 (racemic),2400,39
O=C1NC(=O)C(CNC(=O)c2cnn(-c3cccc(F)c3)n2)(c2nccs2)N1 (racemic),600,12
CC(C)C1(CNC(=O)c2cnn(-c3ccc(F)c(F)c3)n2)NC(=O)NC1=O (racemic),2500,11
O=C1NC(=O)C(CNC(=O)c2cnn(-c3ccc(F)cc3)n2)(c2ncsc2C(F)(F)F)N1 (racemic),6600,48
CC(C)C1(CNC(=O)c2cnn(-c3ccc(Cl)c(F)c3)n2)NC(=O)NC1=O (racemic),2800,13
CC(C)C1(CNC(=O)c2cnn(-c3ccc(F)cc3F)n2)NC(=O)NC1=O (racemic),20000,98
CC(C)C1(CNC(=O)c2cnn(-c3cccc(F)c3)n2)NC(=O)NC1=O (racemic),4500,46
O=C1NC(=O)C(CNC(=O)c2cnn(-c3ccc(F)cc3)n2)(CC2CC2)N1 (racemic),50000,240

SMILES,IC50 [1] [nM],IC50 [2] [nM]
Cn1ccnc1C1(CNC(=O)c2cnn(-c3cc(F)c(F)c(F)c3)n2)NC(=O)NC1=O (racemic),200,5
CC1(CNC(=O)c2cnn(-c3ccc(F)cc3)n2)NC(=O)NC1=O (racemic),5000,560
O=C1NC(=O)C(CNC(=O)c2cnn(-c3ccc(F)cc3)n2)(C2CCCC2)N1 (racemic),50000,380
O=C1NC(=O)C(CNC(=O)c2cnn(-c3ccc(F)cc3)n2)(c2ccnn2C(F)F)N1 (racemic),2400,29
O=C1NC(=O)C(CNC(=O)c2cnn(-c3ccc(F)cc3)n2)(C2CCOCC2)N1 (racemic),9300,260
O=C1NC(=O)C(CNC(=O)c2cnn(-c3ccc(F)cc3)n2)(c2ccnn2CC(F)(F)F)N1 (racemic),3200,50
O=C1NC(=O)C(CNC(=O)c2cnn(-c3ccc(F)cc3F)n2)(c2nccs2)N1 (racemic),6600,87
CCCC1(CNC(=O)c2cnn(-c3ccc(F)cc3)n2)NC(=O)NC1=O (racemic),19000,170
O=C1NC(=O)C(CNC(=O)c2cnn(-c3ccc(F)cc3)n2)(c2ncccc2C(F)(F)F)N1 (racemic),15000,59
O=C1NC(=O)C(CNC(=O)c2cnn(-c3ccc(F)cc3)n2)(c2ncsc2C2CC2)N1 (racemic),460,8
O=C1NC(=O)C(CNC(=O)c2cnn(-c3ccc(F)cc3)n2)(C2CC(F)(F)C2)N1 (racemic),> 50000,220
Cc1ncsc1C1(CNC(=O)c2cnn(-c3ccc(F)cc3)n2)NC(=O)NC1=O (racemic),2500,37
Cn1nccc1C1(CNC(=O)c2cnn(-c3ccc(F)cc3)n2)NC(=O)NC1=O (racemic),2400,10
O=C1NC(=O)C(CNC(=O)c2cnn(-c3ccc(F)cc3)n2)(C2(F)CC2)N1 (racemic),7900,190
"O=C1NC(=O)C(CNC(=O)c2cnn(-c3ccc(F)cc3)n2)(C2CCC2)N1 (single isomer, unassigned)",4380,24
"O=C1NC(=O)C(CNC(=O)c2cnn(-c3ccc(F)cc3)n2)(c2ccnn2C(F)F)N1 (single isomer, unassigned; atropisomer)",1700,18
O=C1NC(=O)C(CNC(=O)c2cnn(-c3ccccc3)n2)(C2CCC2)N1 (stereo in doubt),11000,78
O=C1NC(=O)C(CNC(=O)c2cnn(-c3ccccc3)n2)(c2ccccn2)N1 (stereo in doubt),2800,10
CCCCC1(CNC(=O)c2cnn(-c3ccc(F)cc3)n2)NC(=O)NC1=O (stereo in doubt),3100,48
CCCCC1(CNC(=O)c2cnn(-c3ccccc3)n2)NC(=O)NC1=O (stereo in doubt),19000,191
CC(C)C1(CNC(=O)c2cnn(-c3cc(F)c(F)c(F)c3)n2)NC(=O)NC1=O (stereo in doubt),3300,20
CC(C)C1(CNC(=O)c2cnn(-c3cccc(C#N)c3)n2)NC(=O)NC1=O (stereo in doubt),2600,78
Cn1ccnc1C1(CNC(=O)c2cnn(-c3ccc(F)cc3)n2)NC(=O)NC1=O (stereo in doubt),130,2

SMILES,IC50 [1] [nM],IC50 [2] [nM]
CC(C)C1(CNC(=O)c2cnn(-c3ccccc3)n2)NC(=O)NC1=O (stereo in doubt),10000,76
O=C1NC(=O)C(CNC(=O)c2cnn(-c3ccc(F)c(Cl)c3)n2)(c2nccs2)N1 (stereo in doubt),780,14
CC(C)(C)C1(CNC(=O)c2cnn(-c3ccc(F)cc3)n2)NC(=O)NC1=O (stereo in doubt),2200,79
O=C1NC(=O)C(CNC(=O)c2cnn(-c3ccc(Cl)c(F)c3)n2)(c2nccs2)N1 (stereo in doubt),400,5
Cc1scnc1C1(CNC(=O)c2cnn(-c3ccc(F)cc3)n2)NC(=O)NC1=O (stereo in doubt),200,2
O=C1NC(=O)C(CNC(=O)c2cnn(-c3ccc(F)cc3)n2)(c2nccs2)N1 (stereo in doubt),1400,15
CC(C)C1(CNC(=O)c2cnn(-c3ccc(F)c(F)c3)n2)NC(=O)NC1=O (stereo in doubt),910,7
O=C1NC(=O)C(CNC(=O)c2cnn(-c3ccc(F)cc3)n2)(c2ncsc2C(F)(F)F)N1 (stereo in doubt),3500,27
CC(C)C1(CNC(=O)c2cnn(-c3ccc(Cl)c(F)c3)n2)NC(=O)NC1=O (stereo in doubt),1000,7
CC(C)C1(CNC(=O)c2cnn(-c3cccc(F)c3)n2)NC(=O)NC1=O (stereo in doubt),2300,13
O=C1NC(=O)C(CNC(=O)c2cnn(-c3ccc(F)cc3)n2)(CC2CC2)N1 (stereo in doubt),6200,130
Cn1ccnc1C1(CNC(=O)c2cnn(-c3cc(F)c(F)c(F)c3)n2)NC(=O)NC1=O (stereo in doubt),108,3
CC1(CNC(=O)c2cnn(-c3ccc(F)cc3)n2)NC(=O)NC1=O (stereo in doubt),8900,83
O=C1NC(=O)C(CNC(=O)c2cnn(-c3ccc(F)cc3)n2)(C2CCCC2)N1 (stereo in doubt),5900,33
O=C1NC(=O)C(CNC(=O)c2cnn(-c3ccc(F)cc3)n2)(C2CCOCC2)N1 (stereo in doubt),1500,37
O=C1NC(=O)C(CNC(=O)c2cnn(-c3ccccc3)n2)(C2CCCC2)N1 (stereo in doubt),11000,120
CC(C)(C)C1(CNC(=O)c2cnn(-c3ccccc3)n2)NC(=O)NC1=O (stereo in doubt),13100,47
CC(C)C1(CNC(=O)c2cnn(-c3ccc(F)cc3)n2)NC(=O)NC1=O (stereo in doubt),2770,8
O=C1NC(=O)C(CNC(=O)c2cnn(-c3ccc(F)cc3F)n2)(c2nccs2)N1 (stereo in doubt),5500,78
CCCC1(CNC(=O)c2cnn(-c3ccc(F)cc3)n2)NC(=O)NC1=O (stereo in doubt),5100,60
CC1(C)CC1C1(CNC(=O)c2cnn(-c3ccccc3)n2)NC(=O)NC1=O (stereo in doubt; form 1),13000,320
O=C1NC(=O)C(CNC(=O)c2cnn(-c3ccccc3)n2)(C2CCCOC2)N1 (stereo in doubt; form 1),4000,150
